Values after ≈ are worked out from the molar mass of the structure shown.
What was measured:
RORα = biological target: T1, RORα (Homo sapiens, UniProt P35398); assay: Luciferase reporter assay (G6Pase or FGF21 promoter) in HEK293T cells cotransfected with RORα; format: cell-based; settings: Fig. S34
T1 construct: HEK293T cells co-transfected with a full-length RORα gene and a luciferase reporter gene; expressed in transfected cells; host or cells: HEK293T
T1 sequence (P35398 1-523): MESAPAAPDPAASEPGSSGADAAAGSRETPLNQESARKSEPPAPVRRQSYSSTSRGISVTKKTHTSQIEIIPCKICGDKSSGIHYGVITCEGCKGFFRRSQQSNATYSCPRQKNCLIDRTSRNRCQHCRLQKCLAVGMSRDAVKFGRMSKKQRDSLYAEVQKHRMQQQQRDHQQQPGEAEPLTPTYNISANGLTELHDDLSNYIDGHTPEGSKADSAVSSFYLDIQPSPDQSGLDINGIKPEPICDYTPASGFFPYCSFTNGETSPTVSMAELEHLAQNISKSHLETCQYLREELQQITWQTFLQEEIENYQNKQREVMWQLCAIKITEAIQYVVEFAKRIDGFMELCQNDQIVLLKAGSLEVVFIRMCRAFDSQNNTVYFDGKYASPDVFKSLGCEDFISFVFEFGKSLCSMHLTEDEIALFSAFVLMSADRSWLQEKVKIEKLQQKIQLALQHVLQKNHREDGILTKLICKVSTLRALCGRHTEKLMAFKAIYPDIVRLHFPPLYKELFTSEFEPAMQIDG
Experimental: HEK293T cells were transfected with Lipofectamine 8000 (ThermoFisher) strictly following the manufacturer’s instructions. Cotransfected HEK293T cells with RORα or RORγ plasmid and a reporter consisting of the G6Pase or FGF21 promoters upstream of a luciferase reporter gene. 500 ng plasmid DNA was transfected into each well of 24 well-plate 24 h after the transfection, DMSO or Gala-SR and SR1078 (5 µmol/L) was added and incubated for 24 h. The Lumicycle instrument detects luminescence and records the numerical value.

[1] = test system: Per2-dLuc and Bmal1-dLuc U2OS cells; assay: Real-time bioluminescence monitoring of Per2-dLuc and Bmal1-dLuc U2OS cells; format: cell-based, human; settings: U2OS reporter cells, 5 μmol/L, vs DMSO
Experimental: Two clonal circadian reporter cell lines, Bmal1-dLuc and Per2-dLuc, were established and used in this study.[36] These two cell lines display robust cellular rhythmicity with near anti-phasic oscillation of bioluminescence expression. The lentivirus preparation, transduction of U2OS cells and selection of the knockout candidates with puromycin (at […] concentration) were performed using a previously published protoco.[37] LumiCycle (Actimetrics, Inc., Evanston, IL) detect for U2OS cells stably expressing Bmal1-dLuc and Per2-dLuc cells were seeded on an opaque 24-well plate. When the cells are full, which were treated with dexamethasone (DEX) (100 nmol/L final) for 2 h for resetting, 2 h later, the media of cells were replaced with bioluminescence recording media having DMEM culture medium (Gibco 21063029, 500 mL), 70 mL 12% FBS. Luciferin (0.1 mmol/L final) was added fresh to the bioluminescence media. Molecules at determined concentrations were supplied to the recording media (final DMSO concentration is 0.1%).

Kinetic solubility test = format: physicochemical; settings: water, 25 °C, kinetic from dmso stock
From the text: Solubility(μmol/L)=Areafiltered×DFfiltered/Areastd×DFstd×[std]×DFstd

SMILES	RORα transcriptional activity (RORα)	circadian rhythm amplitudes [1]	period or phase of the circadian rhythm [1]	solubility kinetic at 2 h (Kinetic solubility test) [µM]
Cc1ccc(C(=O)Nc2ccc(C(O)(C(F)(F)F)C(F)(F)F)cc2)cc1 [compound 9, reference compound]	successful inhibition	downregulate the amplitudes	without disrupting the fundamental period or phase	
O=C(Nc1ccc(C(OCO[C@H]2O[C@H](CO)[C@@H](O)[C@H](O)[C@@H]2O)(C(F)(F)F)C(F)(F)F)cc1)c1ccc(C(F)(F)F)cc1 [Mann-SR]				198 (≈ 124 µg/mL)
O=C(Nc1ccc(C(OCO[C@@H]2O[C@H](CO)[C@@H](O[C@H]3O[C@H](CO)[C@@H](O)[C@H](O)[C@H]3O)[C@H](O)[C@H]2O)(C(F)(F)F)C(F)(F)F)cc1)c1ccc(C(F)(F)F)cc1 [Malt-SR]				286 (≈ 225 µg/mL)
